Measurements taken from US20060281786A1, “Compounds having activity at 5ht2c receptor and uses thereof” (priority 2003, published 2006).

- melting point: 227 to 229 °C
Structure (SMILES): COc1cc2c3c(n(C)c2cc1Br)CN(c1ccc(OC)c(OCCN2CCCCC2)c1)C3=O.Cl
